Test results from patent US20240018140A1, “MODIFIED IMIDAZOPYRIDINES AS GLUCOSYLCERAMIDE SYNTHASE INHIBITORS” (Merck Sharp & Dohme LLC, priority 2020, published 2024).

What follows are molecules tested against glucosylceramide synthase (GCS) (Homo sapiens (Human), UniProt Q16739) (assay: UDP-Glo glucosylceramide synthase biochemical assay). Conditions: endogenous GCS in Golgi preparations from human A375 malignant melanoma skin cells; C6 ceramide and UDP-glucose substrates; 20 h incubation; UDP detected by luminescence.
How it was run: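 Endogenous GCS in Golgi preparations from A375 melanoma cells (1.5 μg total protein) preincubated 30 min at room temperature with compound. UDP-glucose and ceramide then added for 20 h at room temperature; UDP measured by luciferase luminescence. Normalized to DMSO (0%) and reference inhibitor (100%); EC50 and % Emax from 4PL fit.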

Sequence of glucosylceramide synthase (GCS) (Q16739 whole entry): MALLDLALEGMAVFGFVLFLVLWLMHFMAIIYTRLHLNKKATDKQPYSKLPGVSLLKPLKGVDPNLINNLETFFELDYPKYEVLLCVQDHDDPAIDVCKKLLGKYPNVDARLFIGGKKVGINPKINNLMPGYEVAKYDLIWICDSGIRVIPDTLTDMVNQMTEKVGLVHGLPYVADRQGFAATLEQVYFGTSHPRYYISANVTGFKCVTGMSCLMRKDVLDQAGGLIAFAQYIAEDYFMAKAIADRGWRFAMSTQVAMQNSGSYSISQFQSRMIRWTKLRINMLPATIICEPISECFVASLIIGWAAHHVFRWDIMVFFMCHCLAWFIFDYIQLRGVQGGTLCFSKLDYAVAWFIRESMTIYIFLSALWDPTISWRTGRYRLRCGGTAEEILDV

Structure (SMILES)	EC50 [nM]
OCC1COC(c2cn3cc(Cl)cc(-c4ccccc4OCC(F)(F)F)c3n2)=N1 (stereo not shown) [Compound 72, [2-[6-chloro-8-[2-(2,2,2-trifluoroethoxy)phenyl]imidazo[1,2-a]pyridin-2-yl]-4,5-dihydrooxazol-4-yl]methanol]	7.9
CC1(CO)COC(c2cn3cc(Cl)cc(-c4ccccc4OCC(F)(F)F)c3n2)=N1 (stereo not shown) [Compound 73, [2-[6-chloro-8-[2-(2,2,2-trifluoroethoxy)phenyl]imidazo[1,2-a]pyridin-2-yl]-4-methyl-5H-oxazol-4-yl]methanol]	32
NCC1CN=C(c2cn3cc(Cl)cc(-c4ccccc4OCC(F)(F)F)c3n2)O1 (stereo not shown) [Compound 74, (2-(6-chloro-8-(2-(2,2,2-trifluoroethoxy)phenyl)imidazo[1,2-a]pyridin-2-yl)-4,5-dihydrooxazol-5-yl)methanamine]	12
CC(C)(O)C1COC(c2cn3cc(Cl)cc(-c4ccccc4OCC(F)(F)F)c3n2)=N1 (stereo not shown) [Compound 75, 2-(2-(6-chloro-8-(2-(2,2,2-trifluoroethoxy)phenyl)imidazo[1,2-a]pyridin-2-yl)-4,5-dihydrooxazol-4-yl)propan-2-ol]	30
CC(C)(O)C1CN=C(c2cn3cc(Cl)cc(-c4ccccc4OCC(F)(F)F)c3n2)O1 (stereo not shown) [Compound 76, 2-[2-[6-chloro-8-[2-(2,2,2-trifluoroethoxy)phenyl]imidazo[1,2-a]pyridin-2-yl]-4,5-dihydrooxazol-5-yl]propan-2-ol]	13
CC(C)(O)C1(C)CN=C(c2cn3cc(Cl)cc(-c4ccccc4OCC(F)(F)F)c3n2)O1 (stereo not shown) [Compound 77, 2-[2-[6-chloro-8-[2-(2,2,2-trifluoroethoxy)phenyl]imidazo[1,2-a]pyridin-2-yl]-5-methyl-4H-oxazol-5-yl]propan-2-ol]	3.7
CC(C)(O)C1(C)COC(c2cn3cc(Cl)cc(-c4ccccc4OCC(F)(F)F)c3n2)=N1 (stereo not shown) [Compound 78, 2-[2-[6-chloro-8-[2-(2,2,2-trifluoroethoxy)phenyl]imidazo[1,2-a]pyridin-2-yl]-4-methyl-5H-oxazol-4-yl]propan-2-ol]	32
CC(C)(C)NCc1cn2cccc(-c3ccccc3OCC(F)(F)F)c2n1 [Compound 79, 2-methyl-N-((8-(2-(2,2,2-trifluoroethoxy)phenyl)imidazo[1,2-a]pyridin-2-yl)methyl)propan-2-amine]	140
NCc1cn2cccc(-c3ccccc3OCC(F)(F)F)c2n1 [Compound 80, (8-(2-(2,2,2-trifluoroethoxy)phenyl)imidazo[1,2-a]pyridin-2-yl)methanamine]	330
O=C(Nc1ccc2cccc(-c3ccccc3OCC(F)(F)F)c2n1)[C@H]1C[C@@H](O)C1 [Compound 81, cis-3-hydroxy-N-(8-(2-(2,2,2-trifluoroethoxy)phenyl)quinolin-2-yl)cyclobutane-1-carboxamide]	11
O=C(Nc1ccc2cccc(-c3ccccc3OCC(F)(F)F)c2n1)[C@H]1C[C@H](O)C1 [Compound 82, trans-3-hydroxy-N-(8-(2-(2,2,2-trifluoroethoxy)phenyl)quinolin-2-yl)cyclobutane-1-carboxamide]	3
O=C(Nc1ccc2c(F)ccc(-c3ccccc3OCC(F)(F)F)c2n1)[C@H]1C[C@H](O)C1 [Compound 83, trans-N-(5-fluoro-8-(2-(2,2,2-trifluoroethoxy)phenyl)quinolin-2-yl)-3-hydroxycyclobutane-1-carboxamide]	6.9
O=C(N[C@H]1C[C@@H](O)C1)c1cc2c(-c3ccccc3OCC(F)(F)F)cccc2cn1 [Compound 84]	16
